Measurements published in patent US8697661B2, “Use of spinosyns and spinosyn compositions against herpesviridae viral infections” (priority 2009, dated 2014).

What was measured:
[1] = tested on: Leishmania donovati MON-2 amastigotes; experiment: In vitro test against Leishmania amastigotes in J774 macrophages; details: Leishmania, J774, read-out: Amastigotes IC50
[2] = tested on: macrophage mice cell type J774; details: J774 CC50 over amastigote IC50
[3] = in vitro; details: mouse
[4] = tested on: Leishmania donovati MON-2 promastigotes; experiment: In vitro test against Leishmania promastigotes; details: Leishmania, read-out: Promastigotes IC50

Row | IC50 [1] [µM] | IC50 [4] [µM] | Compound | Selectivity Index CC50/IC50ama [2] | CC50 [3] [µM]
1 | 12.8 ± 4 | 5.6 ± 0.6 | NC[C@@H]1O[C@H](O[C@H]2[C@@H](O)[C@H](O[C@@H]3[C@@H](O)[C@H](N)C[C@H](N)[C@H]3O[C@H]3O[C@H](CO)[C@@H](O)[C@H](O)[C@H]3N)O[C@@H]2CO)[C@H](N)[C@@H](O)[C@@H]1O [Aminosidine] | 34.96 | 448 ± 8.6
2 | 0.84 ± 0.04 | 0.87 ± 0.04 | CCCCCCCCCCCCCCCCOP(=O)([O-])OCC[N+](C)(C)C [Miltefosine] | 39.04 | 32.8 ± 5.1
